Results reported in PMC7377376, “Drug targeting CYP2E1 for the treatment of early-stage alcoholic steatohepatitis” (PLoS ONE, 2020).

Tests used:
[1] = target: T1, human cytochrome P450 2E1 (Homo sapiens, UniProt P05181); test: Steady-state p-nitrophenol oxidation, CYP2E1 inhibition in SUPERSOMES; format: biochemical
T1 construct: purchased BD Biosciences
Experimental: Initial velocities of the oxidation of p-nitrophenol (p-NP) to p-nitrocatechol by human cytochrome P450 2E1 were determined by measuring the absorption at 535 nm or 546 nm to determine product formation as described before.
Alternatively, 100 mM HEPES pH 7.6 was additionally used for the enzyme kinetic measurements. A final concentration of either 50 nM enzyme in form of SUPERSOMES™ from BD Biosciences or microsomes in case of cell culture experiments was added. Reaction was initiated by adding 500 μM (enzyme kinetic measurements) or 0.1 mM (cell culture experiments) NADPH after preincubation at 37° C and stopped by adding 20% trichloroacetic acid (TCA) after 30 minutes to ensure linearity of product formation. The protein concentration for the microsomal fraction was determined by Bradford assay to calculate the results expressed as units of specific activity defined as the amount of enzyme that consumes 1 μmol/L of NADPH per hour per microgram of protein. Inhibitor stock solutions were prepared in 0.1% DMSO and diluted to a final DMSO concentration of 0.003% in the reaction mixture at most to avoid enzyme inhibition by this solvent. Inhibitory constants (Ki) were calculated by non-linear fitting of initial velocities. Maximum inhibition could not be achieved since final inhibitor concentrations were limited by DMSO.
Supplementary file pone.0235990.s002.tif: S2 Fig CYP2E1 inhibition by data base inhibitors. To ascertain whether an imidazole containing compound is already commercially available and better suited for development as a drug can-didate, we performed a large virtual library screening of the ZINK database. We found 14,738 hits. The 5,261 commercially available compounds could be classified as 4,710 synthetic and 551 natural molecules. After docking and final scoring process, the seven best synthetic and the three best natural candidates were purchased and tested in vitro for their potential to inhibit CYP2E1 activity. Different concentrations of these compounds dissolved in DMSO were added to 110 μM p-Nitrophenol in 100 mM HEPES buffer pH 7.6 and SUPERSOMES™ with 50 nM human CYP 2E1 to calculate relative activity values. […] 20 μM corresponds to a DMSO volume of 0.02% (v/v). (TIF) Click here for additional data file.

ethanol-fed Wistar rats [2] = test: Serum liver enzyme activities of ethanol-fed rats; format: in vivo, rat; conditions: for reduction of ethanol effect on γ-GT activity: UDCA 40 mg/kg; for reduction of ethanol effect on ALT activity: average over 0.4/4/40 mg/kg b.w.; for γ-GT activity above the reference value of healthy animals: highest concentration
Excerpt: A total of 68 female Wistar rats (Institute of Pharmacology and Biochemistry Breeding House, Minsk, Belarus) aged 80–90 days and weighting 180–200 g at the beginning of the experiments were used in the study. Each rat group (n = 6–8) was housed in a separate cage and had free access to the liquid diet during the full study period. Prior to the study, the animals were habituated for seven days to the cage conditions and experimental handling. The rats were maintained in a controlled experimental environment (20–25°C, 40–50% humidity, 12 h light per day, room with a 12-h light/dark cycle).
Rats were divided into ten groups characterized by the diet and the test compounds (S1 Table). Group 1 is the first control group in which a normal solid standard diet was fed for 12 weeks. All other groups received the liquid Lieber-DeCarli (LDC) diet (S2 Table), which combines food and drink in a liquid manner. It was prepared by ssniff Spezialdiäten GmbH, Soest. The addition of maltodextrin to this diet should compensate the pure caloric effect of ethanol, whereby 1.77 g maltodextrin replaces 1 g ethanol. The calorie value of both the control and ethanol diets was the same: 35% calories from fat, 11% from carbohydrates, 18% from protein and 36% from ethanol.
(§1) In the first two weeks rats of all groups–with the exception of group 1 –were fed with LDC diet plus maltodextrin in an appropriate amount to adapt the animals to the liquid diet. Group 2 is the second control group in which the isocaloric diet was administered for further 10 weeks until the end of the experiment. […] The test compounds I-ol, I-an and UDCA were dissolved in a 0.8% aqueous HPMC gel to obtain the appropriate concentrations: (1) I-ol with 0.4, 4 and 40 mg/kg b. w. (2) I-an with 0.4, 4 and 40 mg/kg b. w. (3) UDCA with 40 mg/kg b. w. Rats of group 2 and 3 received only HPMC as a placebo. The LDC diets were fed ad libitum and their intake per cage was controlled daily. The corresponding bottles were stored in the cages from 08:00 a. m. until 06:00 p. m. and replaced by drinking water bottles overnight until 08:00 a. m. in the next morning. Every day at the same time, the test compounds or only HPMC were administered intragastrically by oral gavage with an administration volume of 2 ml/kg b. w. After ten weeks of treatment, the rats were anesthetized with an intraperitoneal injection of a 5% pentobarbital solution and then killed by aorta scarification. Their livers were dissected and liver pieces frozen and stored in liquid nitrogen. A part of the liver was fixed for histological investigations. Blood was collected before sacrifice, centrifuged for serum preparation and finally stored in liquid nitrogen.
The serum marker enzyme activities, alanine aminotransferase (ALT), aspartate aminotransferase (AST), alkaline phosphatase (AP) and gamma-glutamyltransferase (γ-GT) as well as triglycerides and bilirubin were measured according to manufacturer’s instructions using standard commercial kits from Lachema (PLIVA-Lachema Diagnostika, Czech Republic). Serum concentrations of leptin, adiponectin and TNF-alpha were analyzed using commercial ELISA test kits: BioCat GmbH (Heidelberg, German) for adiponectin and TNF-alpha, BioVendor Laboratory Medicine Inc. (Brno, Czech Republic) for leptin. Insulin serum concentration was determined by radioimmunoassay using the commercially available kit RIO-insulin-PG-J125 (IBOCH, Minsk, Belarus). Glucose serum concentration was determined by the Accu-Check Active blood glucose testing system from Roche-Diagnostics GmbH (Mannheim, Germany).

ethanol-fed Wistar rats [3] = test: Liver histopathology of ethanol-fed rats; format: in vivo, rat; conditions: I-ol, I-an in their higher concentrations; UDCA 40 mg/kg b.w.; H.E. staining
Experimental: as §1
Liver samples were selected randomly, fixed in Bouin`s solution and embedded in paraffin wax. Histological sections were prepared and stained with haematoxylin and eosin. Other liver samples were fixed in a solution containing formaldehyde, paraformaldehyde and glutaraldehyde with a subsequent post-fixation in 1% osmium containing phosphate buffer pH 7.4 for further analysis. Liver tissue was embedded in a mixture of butyl-methyl-metacrylates. Semifine sections of 0.5–1.0 μm were stained with Asur II, methylen blue and basic fuxine.

[4] = average over doses (UDCA 40 mg/kg)

T1 sequence (P05181 whole entry): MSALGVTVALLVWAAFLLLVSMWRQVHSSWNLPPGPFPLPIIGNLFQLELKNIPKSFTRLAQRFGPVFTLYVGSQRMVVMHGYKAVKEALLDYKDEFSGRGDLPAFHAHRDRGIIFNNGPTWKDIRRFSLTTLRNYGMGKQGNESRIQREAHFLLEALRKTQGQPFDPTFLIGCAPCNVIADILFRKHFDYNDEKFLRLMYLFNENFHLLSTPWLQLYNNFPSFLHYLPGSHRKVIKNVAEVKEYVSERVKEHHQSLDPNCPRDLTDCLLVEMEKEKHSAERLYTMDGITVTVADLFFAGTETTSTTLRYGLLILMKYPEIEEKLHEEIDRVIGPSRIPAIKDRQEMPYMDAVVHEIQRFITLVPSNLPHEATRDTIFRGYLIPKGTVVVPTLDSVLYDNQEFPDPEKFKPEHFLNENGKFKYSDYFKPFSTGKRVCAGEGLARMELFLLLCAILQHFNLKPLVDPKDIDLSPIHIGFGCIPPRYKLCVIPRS

| SMILES | Ki value (in words) [1] | inhibitory effect on CYP2E1 (in words) ([1]; human CYP2E1 SUPERSOMES) | reduction of ethanol effect on γ-GT activity (ethanol-fed Wistar rats [2]) [%] | reduction of ethanol effect on ALT activity (ethanol-fed Wistar rats [2]) [%] | ALT activity decrease compared to disease group (ethanol-fed Wistar rats [2]; [4]) [%] | AP activity decrease compared to disease group (ethanol-fed Wistar rats [2]; [4]) [%] | AST activity decrease compared to disease group (ethanol-fed Wistar rats [2]; [4]) [%] | reduction of ethanol effect on AST activity (ethanol-fed Wistar rats [2]; [4]) [%] | γ-GT activity decrease compared to disease group (ethanol-fed Wistar rats [2]; [4]) [%] | γ-GT activity above the reference value of healthy animals (ethanol-fed Wistar rats [2]) [%] | AST activity above the reference value of healthy animals (ethanol-fed Wistar rats [2]; lowest concentration) [%] | reduction of ethanol effect on alkaline phosphatase (AP) activity (ethanol-fed Wistar rats [2]; on average (UDCA 40 mg/kg)) [%] | liver morphology (histopathology, in words) (ethanol-fed Wistar rats [3]) | ALT activity (in words) (ethanol-fed Wistar rats [2]; lowest concentration) | AP activity decrease compared to disease group (ethanol-fed Wistar rats [2]; lowest concentration) [%] | reduction of ethanol effect on alkaline phosphatase (AP) activity (ethanol-fed Wistar rats [2]; lowest concentration) [%] |
| --- | --- | --- | --- | --- | --- | --- | --- | --- | --- | --- | --- | --- | --- | --- | --- | --- |
| CCCCCCCCCCCCn1ccnc1 [I-an, 1-Imidazolyldodecane] | nanomolar range | lower affinity | 60 | 59 | 24 | 29 | 11 | 48 | 33 | 12 | 6 | 96 | almost complete restoration of the physiological liver morphology |  |  |  |
| OCCCCCCCCCCCCn1ccnc1 [I-ol] | nanomolar range |  | 68 | 70 | 29 |  | 14 | 60 | 37 | 28 | 6 |  | almost complete restoration of the physiological liver morphology | complete restoration of the basic activity | 27 | 87 |
